In patent US12661410B2, “Compounds for targeted degradation of RET” (C4 Therapeutics, Inc., priority 2020, dated 2026):

Target: T1, RET(KD: 658-1114 G810R) (Homo sapiens, UniProt P07949, G810R)
T1 construct: 658-1114; expressed in transfected cells; host or cells: 293T.165 (293T cells, generated in-house)
T1 sequence (P07949 658-1114 G810R): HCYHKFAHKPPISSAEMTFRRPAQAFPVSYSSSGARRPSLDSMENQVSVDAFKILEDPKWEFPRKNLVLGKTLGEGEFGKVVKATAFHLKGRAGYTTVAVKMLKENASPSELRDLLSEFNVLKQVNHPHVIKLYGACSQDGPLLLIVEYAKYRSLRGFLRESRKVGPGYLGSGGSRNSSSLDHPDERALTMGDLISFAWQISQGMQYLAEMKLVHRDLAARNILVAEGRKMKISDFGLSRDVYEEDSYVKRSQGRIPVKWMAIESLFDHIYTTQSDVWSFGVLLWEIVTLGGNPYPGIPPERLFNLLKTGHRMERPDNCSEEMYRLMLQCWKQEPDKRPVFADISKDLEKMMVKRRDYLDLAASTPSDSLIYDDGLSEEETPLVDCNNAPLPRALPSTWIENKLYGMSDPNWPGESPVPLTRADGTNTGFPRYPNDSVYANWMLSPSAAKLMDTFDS
Assay: HiBiT-Degradation, RET G810R degradation assay (Nano-Glo HiBiT Lytic), 293T.165 cells
Assay type: cell-based
Conditions: 6.0 hours; for Emax: % remaining protein, read-out: 293T.165 RET(KD: 658-1114 G810R) 6.0 hours (Emax); for DC50: half-maximal degradation concentration, read-out: 293T.165 RET(KD: 658-1114 G810R) 6.0 hours (DC50)
Description: Dulbecco's modified Eagle medium (DMEM) no-phenol red media and fetal bovine serum (FBS) were purchased from Gibco (Grand Island, NY, USA). Cell lines ectopically expressing wild-type or G810R RET kinase domain fused with a HiBiT tag were generated in-house (293T. 144 and 293T. 165, respectively). Cell culture flasks and 384-well microplates were acquired from VWR (Radnor, PA, USA). The Nano-Glo® HiBiT Lytic Assay System was purchased from Promega (Madison, WI, USA).
RET wild-type (WT) and G810R degradation were assessed using the Nano-Glo® HiBiT Lytic assay (Promega, Medison, WI, USA). To determine the effect of degraders on protein levels, cells were plated in 384-well plates and treated with compounds of interest in duplicates for 6 hours using an 11-point half-log dilution series, with the highest dose set at 10 μM. Cell lysis and addition of the Nano-Glo® HiBiT Lytic Assay reagents was then performed. Luminescence signal was measured using an EnVision™ Multimode plate reader (Perkin Elmer, Santa Clara, CA, USA). The half-maximal degradation concentration (DC50) and % remaining protein (Emax) was then derived from the dose-response curves.

| Structure (SMILES) | Emax | DC50 |
| --- | --- | --- |
| CCC1(C(=O)NC(C)C)CCN(c2ccc(-c3cc(-c4ccc(N5CCN(C(=O)CN6CCC(c7ccc(C8CCC(=O)NC8=O)cc7)CC6)CC5)cc4)cn4ncc(C#N)c34)cn2)CC1 (stereo not shown) [Compound 29, 1-(5-(3-Cyano-6-(4-(4-(2-(4-(4-(2,6-dioxopiperidin-3-yl)phenyl)piperidin-1-yl)acetyl)piperazin-1-yl)phenyl)pyrazolo[1,5-a]pyridin-4-yl)pyridin-2-yl)-4-ethyl-N-isopropylpiperidine-4-carboxamide] | < 50% | < 1000 nM |
| CCC1(C(=O)NC(C)C)CCN(c2ccc(-c3cc(-c4cnc(N5CCN(C(=O)CN6CCC(c7ccc(NC8CCC(=O)NC8=O)cc7F)CC6)CC5)nc4)cn4ncc(C#N)c34)cn2)CC1 (stereo not shown) [Compound 37, 1-(5-(3-Cyano-6-(2-(4-(2-(4-(4-((2,6-dioxopiperidin-3-yl)amino)-2-fluorophenyl)piperidin-1-yl)acetyl)piperazin-1-yl)pyrimidin-5-yl)pyrazolo[1,5-a]pyridin-4-yl)pyridin-2-yl)-4-ethyl-N-isopropylpiperidine-4-carboxamide] | < 50% | < 1000 nM |
| CC(C)NC(=O)C1(C)CCN(c2ccc(-c3cc(-c4ccc(N5CCN(C(=O)CC6(O)CCN(c7ccc(CN8CCC(=O)NC8=O)cc7)CC6)CC5)cc4)cn4ncc(C#N)c34)cn2)CC1 [Compound 33, 1-[5-[3-cyano-6-[4-[4-[2-[1-[4-[(2,4-dioxohexahydropyrimidin-1-yl)methyl]phenyl]-4-hydroxy-4-piperidyl]acetyl]piperazin-1-yl]phenyl]pyrazolo[1,5-a]pyridin-4-yl]-2-pyridyl]-N-isopropyl-4-methyl-piperidine-4-carboxamide] | < 70% | > 1000 nM |

Continued, values first:

| Emax | DC50 | Structure (SMILES) |
| --- | --- | --- |
| < 50% | < 1000 nM | CCC1(C(=O)N[C@H](C)C(F)(F)F)CCN(c2ccc(-c3cc(-c4cnn(C5CCN(C(=O)CN6CCC(c7ccc(NC8CCC(=O)NC8=O)cc7F)CC6)CC5)c4)cn4ncc(C#N)c34)cn2)CC1 (stereo partly drawn) [Compound 7, 1-[5-[3-cyano-6-[1-[1-[2-[4-[4-[(2,6-dioxo-3-piperidyl)amino]-2-fluoro-phenyl]-1-piperidyl]acetyl]-4-piperidyl]pyrazol-4-yl]pyrazolo[1,5-a]pyridin-4-yl]-2-pyridyl]-4-ethyl-N-[(1R)-2,2,2-trifluoro-1-methyl-ethyl]piperidine-4-carboxamide] |
| < 50% | < 1000 nM | N#Cc1cnn2cc(-c3ccc(N4CCN(C(=O)CN5CCC(c6ccc(NC7CCC(=O)NC7=O)cc6)CC5)CC4)cc3)cc(-c3ccc(C4(CO)CCCCC4)nc3)c12 (stereo not shown) [Compound 21, 6-(4-(4-(2-(4-(4-((2,6-Dioxopiperidin-3-yl)amino)phenyl)piperidin-1-yl)acetyl)piperazin-1-yl)phenyl)-4-(6-(1-(hydroxymethyl)cyclohexyl)pyridin-3-yl)pyrazolo[1,5-a]pyridine-3-carbonitrile] |
